Measured values taken from US20190216886A1, “Topical Compositions And Methods For Treating Wounds” (priority 2014, published 2019).

How the values were obtained:
[1] = system: S. aureus; assay: in vitro zone inhibition (disk diffusion) study; type: cell-based, Staphylococcus aureus; conditions: for Mean inhibition diameter: S. aureus (n = 6), 6 mm paper disks on Mueller Hinton Agar; for antimicrobial activity, in words: non-resistant S. aureus, zone inhibition
Procedure: (§1) In vitro culture and sensitivity studies were performed on common microbes seen in acute and stubborn chronic wound cases. The particular microbes tested included streptococcus pyogenes, staphylococcus aureus, methicillin resistant staphylococcus aureus (MRSA) and, a fungus, candida albicans. Ten different strains of MRSA bacteria obtained from infected hospital patients were tested.
(§2) The different microbes were inoculated on Mueller Hinton Agar media in culture plates. […] However, genetically mutated resistant strains of staphylococcus have evolved and are now the cause of numerous infections because of their resistant nature to most antibiotics.

[2] = system: MRSA; assay: in vitro zone inhibition (disk diffusion) study; type: cell-based, methicillin resistant staphylococcus aureus; conditions: for Mean inhibition diameter: MRSA (10 strains, n = 30), 6 mm paper disks on Mueller Hinton Agar; for zone of inhibition, visual result: MRSA strain number 11, FIG. 7; for antimicrobial activity, in words: MRSA, zone inhibition
Procedure: as §1, §2

[3] = system: S. pyogenes; assay: in vitro zone inhibition (disk diffusion) study; type: cell-based, Streptococcus pyogenes; conditions: for Mean inhibition diameter: S. pyogenes (n = 6), 6 mm paper disks on Mueller Hinton Agar; for antimicrobial activity, in words: S. pyogenes, zone inhibition
Procedure: as §1, §2

[4] = system: C. albicans; assay: in vitro zone inhibition (disk diffusion) study; type: cell-based, Candida albicans; conditions: for Mean inhibition diameter: C. albicans (n = 6), 6 mm paper disks on Mueller Hinton Agar; for antimicrobial activity, in words: C. albicans (fungi), zone inhibition
Procedure: as §1, §2

[5] = system: tinea pedis infection; assay: treatment of a patient with chronic tinea pedis; type: in vivo, human; conditions: person, oral, after a month's treatment
Procedure: Twenty patients with a variety of chronic wound conditions that included diabetic foot ulcers, decubitus pressure ulcers, surgical wounds, toe fungus were treated for eight weeks by wound care physicians with a compounded topical pharmaceutical composition made from compendial ingredients.
Specifically, the test pharmaceutical composition for these studies was prepared by compounding: 25 parts 1% silver sulfadiazine cream: 25 parts 20% zinc oxide ointment; 15 parts triple antibiotic ointment; 25 parts 2% lidocaine viscous; 5 parts Vitamin E Oil (as 200 IU/gm final); and 5 parts Coenzyme Q10 (as 15 mg/gm final).
A case of tinea pedis was also reported in one of the patients. A person who had been suffering from chronic tinea pedis infection (athlete's foot) for over 10 months had tried numerous over-the-counter remedies with no success. They were prescribed the oral antibiotic terbinafine. […] The terbinafine was discontinued and the patient was placed on the test pharmaceutical formulation of the invention on Apr. 14, 2014. They returned for a follow-up with their physician about one week later on Apr. 22, 2014. […] The patient returned for a second follow up on Apr. 29, 2014 (FIG. 5B). The physician's report about 2 weeks after beginning treatment states: “Patient reports foot no longer itchy. Skin healing. […] Foot dry, healthy new tissue visualized”. […]

Row | SMILES | Mean inhibition diameter [1] | antimicrobial activity, in words [1] | Mean inhibition diameter [2] | zone of inhibition, visual result [2] | Mean inhibition diameter [3] | antimicrobial activity, in words [3] | Mean inhibition diameter [4] | antimicrobial activity, in words [2] | antimicrobial activity, in words [4] | tinea pedis infection outcome [5]
1 | Cc1onc(-c2ccccc2)c1C(=O)N[C@@H]1C(=O)N2[C@@H]1SC(C)(C)[C@@H]2C(=O)O [Oxacillin, oxacillin] | 20.3 mm | showed antimicrobial activity | 0.0 mm | lack of any zone inhibition | 30.2 mm | showed antimicrobial activity | 0.0 mm | – | – | –
2 | CN[C@H](CC(C)C)C(=O)N[C@H]1C(=O)N[C@@H](CC(N)=O)C(=O)N[C@H]2C(=O)N[C@H]3C(=O)N[C@H](C(=O)N[C@H](C(=O)O)c4cc(O)cc(O)c4-c4cc3ccc4O)[C@H](O)c3ccc(c(Cl)c3)Oc3cc2cc(c3O[C@@H]2O[C@H](CO)[C@@H](O)[C@H](O)[C@H]2O[C@H]2C[C@](C)(N)[C@H](O)[C@H](C)O2)Oc2ccc(cc2Cl)[C@H]1O [Vancomycin, vancomycin] | 17.3 mm | potent activity | 18.9 mm | clear circular area of inhibition zone | 22.2 mm | potent activity | 0.0 mm | potent activity | not effective | –
3 | COc1cccc(OC)c1C(=O)N[C@@H]1C(=O)N2[C@@H]1SC(C)(C)[C@@H]2C(=O)O [methicillin] | – | – | – | – | – | – | – | no activity | no activity | –
4 | CN(C/C=C/C#CC(C)(C)C)Cc1cccc2ccccc12 [terbinafine] | – | – | – | – | – | – | – | – | – | no sign of reduction in the infection
